The assay has as its system HIV-1 (H9IIIB strain). As to the kind of experiment: Cell-based HIV infection assay using a reporter (Cell-Based), MT4-GFP cells. The note with it: Human immunodeficiency virus 1, MT4-GFP cells infected with HIV-1 H9IIIB; 50% normal human serum; mean of at least two independent experiments; read-out: Cell-based IP. The method in brief:
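IC50 from 4-parameter dose-response of % viral growth inhibition, using the 48 h/24 h infected-cell ratio scaled between DMSO and a protease/integrase/NNRTI triple-drug control. Assay used MT4 cells with HIV-LTR-GFP reporter, pre-infected 24 h with HIV-1 H9IIIB, in 50% normal human serum.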
As for `COC(=O)N[C@H](C(=O)Nc1cccc(F)c1CC[C@H]1CNC[C@@H](C)N1S(=O)(=O)c1ccccc1)C1(c2cc(F)cc(F)c2)CCOCC1` [Example 285, methyl {(1S)-1-[4-{3,5-difluorophenyl)tetrahydro-2H-pyran-4-yl]-2-[(3-fluoro-2-{2-[(2S,6R)-6-methyl-1-(phenylsulfonyl)piperazin-2-yl]ethyl}phenyl)amino]-2-oxoethyl}carbamate], the IC50 was 29 nM. Consider `COC(=O)N[C@H](C(=O)Nc1cccc(F)c1CC[C@H]1CNC[C@H](C)N1S(=O)(=O)c1ccccc1)C1(c2cc(F)cc(F)c2)CCOCC1` [Example 286, methyl {(1S)-1-[4-(3,5-difluorophenyl)tetrahydro-2H-pyran-4-yl]-2-[(3-fluoro-2-{2-[(2S,6S)-6-methyl-1-(phenylsulfonyl)piperazin-2-yl]ethyl}phenyl)amino]-2-oxoethyl}carbamate], for which the IC50 stood at 33 nM. `C[C@@H]1CNC[C@H](CCc2c(F)cccc2NC(=O)[C@@H](N)C2(c3cc(F)cc(F)c3)CCOCC2)N1S(=O)(=O)c1ccccc1` [Example 287, (2S)-2-amino-2-[4-(3,5-difluorophenyl)tetrahydro-2H-pyran-4-yl]-N-(3-fluoro-2-{2-[(2S,6R)-6-methyl-1-(phenylsulfonyl)piperazin-2-yl]ethyl}phenyl)ethanamide]: the IC50 was 91 nM.

Consider `C[C@@H]1CNC[C@H](CCc2c(F)cccc2NC(=O)[C@@H](N)[C@@H](c2ccc(F)c(F)c2)C2CCOCC2)N1S(=O)(=O)c1ccccc1` [Example 288, (βR)-3,4-difluoro-N-(3-fluoro-2-{2-[(2S,6R)-6-methyl-1-(phenylsulfonyl)piperazin-2-yl]ethyl}phenyl)-β-(tetrahydro-2H-pyran-4-yl)-L-phenylalaninamide], for which the IC50 came out at 23 nM.

As to `C[C@H]1CNC[C@H](CCc2c(F)cccc2NC(=O)[C@@H](N)[C@@H](c2ccc(F)c(F)c2)C2CCOCC2)N1S(=O)(=O)c1ccccc1` [Example 289, (βR)-3,4-difluoro-N-(3-fluoro-2-{2-[(2S,6S)-6-methyl-1-(phenylsulfonyl)piperazin-2-yl]ethyl}phenyl)-β-(tetrahydro-2H-pyran-4-yl)-L-phenylalaninamide], the IC50 turned out to be 23 nM. Under `COC(=O)N[C@H](C(=O)Nc1cccc(F)c1CC[C@H]1CNC[C@@H](C)N1S(=O)(=O)c1ccccc1)C1(c2ccc(F)c(F)c2)CCOCC1` [Example 290, methyl {(1S)-1-[4-(3,4-difluorophenyl)tetrahydro-2H-pyran-4-yl]-2-[(3-fluoro-2-{2-[(2S,6R)-6-methyl-1-(phenylsulfonyl)piperazin-2-yl]ethyl}phenyl)amino]-2-oxoethyl}carbamate] stands 15 nM; under `C[C@@H]1CNC[C@H](CCc2c(F)cccc2NC(=O)[C@@H](N)C2(c3ccc(F)c(F)c3)CCOCC2)N1S(=O)(=O)c1ccccc1` [Example 291, (2S)-2-amino-2-[4-(3,4-difluorophenyl)tetrahydro-2H-pyran-4-yl]-N-(3-fluoro-2-{2-[(2S,6R)-6-methyl-1-(phenylsulfonyl)piperazin-2-yl]ethyl}phenyl)ethanamide], 100 nM. The value for `C[C@H]1CNC[C@H](CCc2c(F)cccc2NC(=O)[C@@H](N)C2(c3ccc(F)c(F)c3)CCOCC2)N1S(=O)(=O)c1ccccc1` [Example 292, (2S)-2-amino-2-[4-(3,4-difluorophenyl)tetrahydro-2H-pyran-4-yl]-N-(3-fluoro-2-{2-[(2S,6S)-6-methyl-1-(phenylsulfonyl)piperazin-2-yl]ethyl}phenyl)ethanamide] was 130 nM; that for `COC(=O)N[C@H](C(=O)Nc1cccc(F)c1CC[C@H]1CNC[C@@H](C)N1S(=O)(=O)c1ccccc1)[C@@H](c1ccc(F)c(F)c1)C1CCOCC1` [Example 293, (βR)-3,4-difluoro-N-(3-fluoro-2-{2-[(2S,6R)-6-methyl-1-(phenylsulfonyl)piperazin-2-yl]ethyl}phenyl)-Nα-(methoxycarbonyl)-β-(tetrahydro-2H-pyran-4-yl)-L-phenylalaninamide] was 8.7 nM.
